US8778961B2, “O-methylated rapamycin derivatives for alleviation and inhibition of lymphoproliferative disorders” (The Trustees of the University of Pennsylvania, priority 2000, dated 2014)
Several values for one entry are separate records, joined by “and”; a condition that tells them apart may be missing. Equal values may be shown once.

Key:
Format in all cases: in vivo
[1] = toxicity study in BALB/c and SCID mice; conditions: 5 milligrams per kilogram body weight per day
Description: Five- to seven-week-old immunodeficient SCID mice (C.B-17 and ICR) were purchased from Taconic (Germantown, N.J.) and housed at the University of Pennsylvania Animal Facility under pathogen-free conditions in a laminar air flow unit and supplied with sterile food and water. In the toxicity studies, 5-7 week old inbred BALB/c mice (Taconic) were used in addition to the SCID mice.
(§1) Mice were sacrificed by exposure to FORANE™ (isoflurane, Ohmeda, Liberty Place, N.J.) on day 29 in the drug toxicity study, on day 40-55 in the tumor growth inhibition study or when tumors achieved approximately 2 centimeter diameter, or when ulceration of the skin, signs of severe respiratory distress, weakness, or lethargy appeared. Complete autopsy was performed on all mice at the end of the study regardless of their appearance. Tumor and internal organs (spleen, liver, lung, heart, kidney, small and large intestines, femoral bone for bone marrow) were fixed in 10% (v/v) formalin, embedded in paraffin, cut into […] sections, transferred to glass slides, and stained with hematoxylin and eosin. Representative tumor fragments were stained immunohistochemically by standard streptavidin-biotin complex technique using commercially available reagents (Research Genetics, Huntsville, Ala.), antibodies: anti-CD20 (L-26) and LMP-1 (both from DAKO, Carpinteria, Calif.) and Ki67 (mib1; Immunotech, Westbrook, Me.). EBV-encoded RNA (EBER-1), and detected using commercially available reagents.
Previous studies have shown that a minimal effective dose of SDZ RAD in rats was 5 milligrams per kilogram body weight per day and >5 milligrams per kilogram body weight per day in the in kidney and heart transplant model, respectively, when SDZ RAD was used as a single immunosuppressive agent (Schuurman et al., 1997, Transplantation 64:32-5; Schuler et al. 1997, Transplantation 64: 36-42). In order to determine if prolonged exposure to SDZ RAD is non-toxic for mice, both immunocompetent and immunodeficient, a cohort of normal BALB/c mice were treated with the above dose of SDZ RAD for 28 days. Ten treated and 5 control, untreated mice were used in this study. Later SCID mice which were transplanted with human PTLD-like lymphomas and treated with SDZ RAD for up to 55 days were evaluated. Seven treated and 5 control untreated SCID mice were evaluated in this experiment. After receiving the final dose of the drug, all mice were sacrificed and the following organs were harvested for histopathologic evaluation to investigate for possible toxic effects: liver, spleen, kidney, small intestine, large intestine, heart, lung, and femoral bone for bone marrow.

15A tumors = test: treatment of established xenotransplanted tumors in SCID mice; conditions: 5 milligrams per kilogram daily gavage
Description: (§2) Establishment and passaging of the xenotransplanted tumors was performed as described (Douglas et al., 1998, Cytometry 32:57-65; Kawamata et al., 1998, Blood 91:561-569; Pepper et al., 1998, Leuk. Res. 22:439-444). To deplete macrophages and NK cells and to enhance tumor engraftment, SCID mice were injected intraperitoneally with 30-45 milligrams per kilogram of etoposide (Bedford Laboratories, Bedford, Ohio) 4 days prior to implantation of the human EBV^+ B-cell lines (Visonneau et al., 1998, Am. J. Path. 152:1299-1311). Ten million cells of each line employed (see results) were inoculated into mice either intraperitoneally or subcutaneously in 200 microliters of Dulbecco's Phosphate Buffered Saline (DPBS; BioWhittaker, Walkersville, Md.). Ascites or palpable subcutaneous tumors developed 3-5 weeks after cell injection.
(§3) Tumor treatment and growth inhibition experiments were performed using fragments of the established subcutaneous tumors (Pasqualucci et al., 1995, Blood 85:2139-2146, Visonneau et al., 1998, Am. J. Path. 152:1299-1311). For this purpose, mice were anesthetized with KETALAR™ (ketamine, Parke-Davis, Morris Plains, N.J.) by intraperitoneal injection of 100 milligrams per kilogram. Next, the primary tumor was aseptically removed and freed from necrotic, fatty and connective tissue and divided into small pieces of roughly equal size and 3-4 pieces per mouse were injected subcutaneously. Treatment of established tumors with SDZ RAD was started when tumors reached 5 millimeters diameter. In growth inhibition experiments, the treatment was initiated 3 days prior to the tumor implantation. Tumor volume in all experiments was determined from the equation: volume=0.4ab^2, where a and b designate respectively long and short diameter of the tumor. The transplanted mice were monitored for tumor growth for a period of up to 2 months. Five milligrams per kilogram of SDZ RAD was administered once a day by gavage as described (Schuurman et al., 1997, Transplantation 64:32-5; Schuler et al. 1997, Transplantation 64:36-42).
as §1
(§4) In order to determine the in vivo effect of SDZ RAD on PTLD-like cells, 15A, 20A, and A1 cell line tumors were implanted into 7-15 SCID mice per cell line. Treatment was initiated once the tumors reached 5 millimeters diameter, which corresponds to a volume of 50 cubic millimeters. SDZ RAD was administered by daily gavage at 5 milligrams per kilogram, which represents a non-toxic and effective immunosuppressive dose (Schuurman et al., 1997, Transplantation 64:32-5; Schuler et al. 1997, Transplantation 64:36-42).

20A tumors = test: as above
Description: as §2, §3, §1, §4

A1 cell line tumors = test: as above
Description: as §2, §3, §1, §4

[2] = BALB/c 28 days, SCID up to 55 days

CO[C@H]1C[C@@H]2CC[C@@H](C)[C@@](O)(O2)C(=O)C(=O)N2CCCC[C@H]2C(=O)O[C@H]([C@H](C)C[C@@H]2CC[C@@H](OCCO)[C@H](OC)C2)CC(=O)[C@H](C)/C=C(\C)[C@@H](O)[C@@H](OC)C(=O)[C@H](C)C[C@H](C)/C=C/C=C/C=C/1C [SDZ RAD, 40-O-(2-hydroxy)ethyl-rapamycin]
growth and weight gain vs control group [1, 2]: the same | visible signs of drug toxicity [1, 2]: None of the treated mice | microscopic evaluation of organs ([1]; liver, spleen, kidney, intestines, heart, lung, bone marrow): no pathologic changes | adverse effect of prolonged exposure ([1]; regardless of immune status): no adverse effect | effect on tumor growth (15A tumors; started at 5 millimeters tumor diameter): marked drug-induced delay of the tumor growth but no absolute tumor growth inhibition or regression | median tumor volume (15A tumors; day 21, treated mice): approximately 240 cubic millimeters | tumor volume (15A tumors; day 38, treated mice): around 1000 cubic millimeters | treated mice with significant regression in the tumor volume (20A tumors; 5 milligrams per kilogram daily gavage): 6 out of 10 | average treated tumor volume (20A tumors; day 19, 5 milligrams per kilogram daily gavage, equal to initial tumor size): 50 cubic millimeters | median tumor volume (20A tumors; day 53, subset of mice with regression): < 5 cubic millimeters | mice with steady regression on further treatment (A1 cell line tumors; after day 21): all 8 | tumors showing any evidence of growth (A1 cell line tumors; day 21): 0/8 | median volume of the treated tumors (A1 cell line tumors; day 21, 5 milligrams per kilogram daily gavage): 50 cubic millimeters | mean tumor volume (A1 cell line tumors; day 53): < 5 cubic millimeters | mice in which no lymphoma could be detected (total tumor eradication) (A1 cell line tumors; day 53, 8 treated mice): 4 and 4 out of 8 | mice with microscopically-confirmed residual lymphoma (A1 cell line tumors; day 53, 8 treated mice): 4
